From PMC8948939 (Pharmaceutics, 2022)
Where “and” joins values, the source holds several entries; their conditions need not be identical. Equal values may be shown once. Read-outs that look alike come from different tables or passages of the source.

What was measured:
[1] = molecular target: T1, CYP3A4 (Homo sapiens, UniProt P08684); assay: Michaelis-Menten kinetics of midazolam 1-hydroxylation by rhCYP3A4; format: in vitro ADME; parameters: purchased Corning Inc
From the text: (§1) Towards the Elucidation of the Pharmacokinetics of
(§2) Josefine Schulz 1, Antonia Thomas 1, Ayatallah Saleh 1,2, Gerd Mikus 1,3, Charlotte Kloft 1,† and Robin Michelet 1,*,† 1 Department of Clinical Pharmacy & Biochemistry, Institute of Pharmacy, Freie Universitaet Berlin, Kelchstraße 31, 12169 Berlin, Germany
(§3) 2 Graduate Research Training Program PharMetrX, 12169 Berlin/Potsdam, Germany 3 Department of Clinical Pharmacology and Pharmacoepidemiology, University Hospital Heidelberg, Im Neuenheimer Feld 410, 69120 Heidelberg, Germany
(§4) * Correspondence: robin.michelet@fu-berlin.de; Tel.: +49-30-838-50659
(§5) † These authors contributed equally to this work
(§6) Supplementary Section S1. Marker reactions for CYP2C19, CYP2C9 and CYP3A4 […]
(§7) for CYP3A4 [1,2] were used to determine (i) intersystem extrapolation factors (ISEF), (ii) […]
(§8) (i) Experiments for the determination of Michaelis-Menten kinetics in HLM were performed at protein concentrations of 0.02, 0.04 and 0.05 mg/mL for the marker reactions of CYP2C19, CYP2C9 and CYP3A4 (n = 3 each), respectively. Two samples were taken from each incubation after 15 and 25 min for investigations on CYP2C19, after 5 and 10 min for CYP2C9 and after 7 and 12 min for CYP3A4, respectively. […]
(§9) were applied as substrate concentrations.
(§10) For investigations in rhCYP concentrations of 2.5 pmol/mL rhCYP2C19 (n = 3), […]
respectively. Sampling time points were identical to those in HLM as were substrate […]
concentration of 0.2 mg/mL for 15 and 25 min (n = 2). Each probe substrate was incubated in the presence of each inhibitor. […]
(§11) were performed at concentrations of 0.2, 0.08 and 0.05 mg/mL HLM for CYP2C19, CYP2C9 and CYP3A4, respectively. IC50 and IC50 shift assays were performed at substrate […]
Reaction times were identical to those described […]
Target sequence in this assay (P08684 whole entry): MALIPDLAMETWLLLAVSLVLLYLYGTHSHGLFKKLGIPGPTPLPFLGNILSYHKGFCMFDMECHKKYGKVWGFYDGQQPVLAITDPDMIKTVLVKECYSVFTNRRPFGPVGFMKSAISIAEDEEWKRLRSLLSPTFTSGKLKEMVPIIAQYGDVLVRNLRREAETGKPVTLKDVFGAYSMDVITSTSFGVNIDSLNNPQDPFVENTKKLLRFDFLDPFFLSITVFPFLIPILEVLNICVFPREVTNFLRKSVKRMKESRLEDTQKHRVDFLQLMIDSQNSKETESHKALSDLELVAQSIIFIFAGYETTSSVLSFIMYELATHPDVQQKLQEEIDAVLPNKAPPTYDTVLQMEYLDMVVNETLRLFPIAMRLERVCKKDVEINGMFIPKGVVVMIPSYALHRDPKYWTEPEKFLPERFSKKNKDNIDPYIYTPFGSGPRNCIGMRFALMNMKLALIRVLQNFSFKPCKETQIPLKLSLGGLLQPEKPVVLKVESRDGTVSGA

[2] = molecular target: T2, CYP3A4 in human liver microsomes (HLM) (Homo sapiens, UniProt P08684); assay: Michaelis-Menten kinetics of midazolam 1-hydroxylation (CYP3A4 marker reaction) in HLM; format: in vitro ADME; conditions: midazolam 1-hydroxylation; HLM
T2 construct: tissue Corning Inc; host or cells: pooled human liver microsomes (150 donors)
From the text: as §1, §2, §3, §4, §5, §6, §7, §8, §9, §10
(§12) respectively. […]

[3] = molecular target: T1, CYP3A4; assay: as above; format: in vitro ADME; parameters: tissue Corning Inc; host or cells: pooled human liver microsomes (150 donors); conditions: human, human liver microsomes
From the text: as §1, §2, §3, §4, §5, §6, §7, §8, §9, §10, §12
Target sequence in this assay (P08684 2-503 limits assumed): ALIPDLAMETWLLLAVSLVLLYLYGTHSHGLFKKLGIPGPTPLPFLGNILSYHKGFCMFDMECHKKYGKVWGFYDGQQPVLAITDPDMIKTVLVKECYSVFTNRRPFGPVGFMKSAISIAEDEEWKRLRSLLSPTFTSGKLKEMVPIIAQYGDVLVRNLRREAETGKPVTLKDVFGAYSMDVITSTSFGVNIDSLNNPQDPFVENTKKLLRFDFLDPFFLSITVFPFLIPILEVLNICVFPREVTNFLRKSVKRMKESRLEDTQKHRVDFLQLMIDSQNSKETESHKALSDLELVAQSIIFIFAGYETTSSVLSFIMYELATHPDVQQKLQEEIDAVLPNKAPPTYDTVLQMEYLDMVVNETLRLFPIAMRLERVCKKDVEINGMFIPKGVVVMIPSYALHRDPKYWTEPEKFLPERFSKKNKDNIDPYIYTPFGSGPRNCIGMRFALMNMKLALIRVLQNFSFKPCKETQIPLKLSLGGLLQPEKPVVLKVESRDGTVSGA

[4] = molecular target: T3, CYP2C9 (Homo sapiens, UniProt P11712); parameters: tissue Corning Inc; host or cells: pooled human liver microsomes (150 donors); conditions: ref Giri et al. 84; cited from earlier work
[5] = molecular target: T3, CYP2C9; assay: IC50 and IC50 shift on CYP2C9 marker reaction (diclofenac 4-hydroxylation) in HLM; format: in vitro ADME; parameters: tissue Corning Inc; host or cells: pooled human liver microsomes (150 donors)
Protocol: (§13) Remaining activity (A, %) was calculated as the ratio of reaction velocities in the inhibited and non-inhibited incubations. IC50 and the steepness of the inhibition curve (H) were estimated by fitting the four-parameter inhibition model to the experimental data (Equation (9)). Maximum (Amax) and baseline activity (A0) were fixed to 100 and 0, respectively. […] (9) A,%=A0+Amax−A0/1+logCInhib/logIC50^H=100/1+logCInhib/logIC50^H […]
Supplementary Section S1. […]
Two samples were taken
from each incubation after 15 and 25 min for investigations on CYP2C19, after 5 and
10 min for CYP2C9 and after 7 and 12 min for CYP3A4, respectively. […]
CYP2C9 and CYP3A4, respectively. IC50 and IC50 shift assays were performed at substrate
(§14) Reaction times were identical to those described

[6] = molecular target: T1, CYP3A4; assay: Type of reversible inhibition and Ki on CYP3A4 (midazolam 1-hydroxylation) in HLM; format: in vitro ADME; parameters: tissue Corning Inc; host or cells: pooled human liver microsomes (150 donors)
Protocol: (§15) Reaction velocities were investigated in function of the substrate ([S]) and inhibitor ([I]) concentration to determine KM, Vmax and Ki of the reaction. The obtained data were used to fit the three main models of reversible inhibition, i.e., competitive (Equation (10)), noncompetitive (Equation (11)) and uncompetitive (Equation (12)) using the “nls” function in R. The type of inhibition was determined according to the best model fit assessed with Akaike’s information criteria (AIC). […] (10) V=Vmax/1+KM/S1+I/Ki (11) V=Vmax/1+KM/S1+I/Ki (12) V=Vmax/1+KM/S+I/Ki […]
as §6, §7, §8
(§16) were applied as substrate concentrations. […]
(§17) Each probe substrate was incubated in the presence of each inhibitor. […]
as §11, §14
Target sequence in this assay (P08684 2-503 limits assumed): as above

[7] = molecular target: T4, CYP2C19 (Homo sapiens, UniProt P33261); assay: Type of reversible inhibition and Ki on CYP2C19 (S-mephenytoin 4-hydroxylation) in HLM; format: in vitro ADME; parameters: tissue Corning Inc; host or cells: pooled human liver microsomes (150 donors)
Protocol: as §15, §6, §7, §8, §16, §17, §11, §14

[8] = molecular target: T1, CYP3A4; assay: IC50 and IC50 shift on CYP3A4 marker reaction (midazolam 1-hydroxylation) in HLM; format: in vitro ADME; parameters: tissue Corning Inc; host or cells: pooled human liver microsomes (150 donors); conditions: for IC50 shift: human, human liver microsomes, pH 7.5, probe midazolam 1-hydroxylation (4.60 µM midazolam)
Protocol: as §13, §6, §7
Target sequence in this assay (P08684 2-503 limits assumed): as above
Two samples were taken […]
from each incubation after 15 and 25 min for investigations on CYP2C19, after 5 and 10 min for CYP2C9 and after 7 and 12 min for CYP3A4, respectively. […]
CYP2C9 and CYP3A4, respectively. IC50 and IC50 shift assays were performed at substrate […]
as §14

[9] = molecular target: T4, CYP2C19; assay: IC50 and IC50 shift on CYP2C19 marker reaction (S-mephenytoin 4-hydroxylation) in HLM; format: in vitro ADME; parameters: tissue Corning Inc; host or cells: pooled human liver microsomes (150 donors)
Protocol: as §13, §6, §7, §17, §11, §14

[10] = test system: human liver microsomes (HLM); assay: Metabolic stability of voriconazole N-oxide and hydroxyvoriconazole in HLM; format: in vitro ADME; conditions: HLM 0.2 mg/mL
Protocol: An incubation without HLM served as a control (n = 1).

[11] = molecular target: T4, CYP2C19; parameters: tissue Corning Inc; host or cells: pooled human liver microsomes (150 donors); conditions: ref Hohmann et al. 42; cited from earlier work
[12] = test system: CYP3A4; conditions: cited from earlier work
[13] = molecular target: T3, CYP2C9; assay: Type of reversible inhibition and Ki on CYP2C9 (diclofenac 4-hydroxylation) in HLM; format: in vitro ADME; parameters: tissue Corning Inc; host or cells: pooled human liver microsomes (150 donors)
Protocol: as §15, §6, §7, §8, §16, §17, §11, §14

[14] = midazolam 1-hydroxylation, rhCYP3A4
[15] = 30 min pre-incubation in the absence of NADPH, read-out: IC50 NADPH (−) (95% Confidence Interval)
[16] = 30 min pre-incubation in the presence of NADPH, read-out: IC50 NADPH (+) (95% Confidence Interval)
[17] = 30 min pre-incubation in the presence of NADPH
[18] = 30 min pre-incubation in the absence of NADPH

T4 sequence (P33261 whole entry): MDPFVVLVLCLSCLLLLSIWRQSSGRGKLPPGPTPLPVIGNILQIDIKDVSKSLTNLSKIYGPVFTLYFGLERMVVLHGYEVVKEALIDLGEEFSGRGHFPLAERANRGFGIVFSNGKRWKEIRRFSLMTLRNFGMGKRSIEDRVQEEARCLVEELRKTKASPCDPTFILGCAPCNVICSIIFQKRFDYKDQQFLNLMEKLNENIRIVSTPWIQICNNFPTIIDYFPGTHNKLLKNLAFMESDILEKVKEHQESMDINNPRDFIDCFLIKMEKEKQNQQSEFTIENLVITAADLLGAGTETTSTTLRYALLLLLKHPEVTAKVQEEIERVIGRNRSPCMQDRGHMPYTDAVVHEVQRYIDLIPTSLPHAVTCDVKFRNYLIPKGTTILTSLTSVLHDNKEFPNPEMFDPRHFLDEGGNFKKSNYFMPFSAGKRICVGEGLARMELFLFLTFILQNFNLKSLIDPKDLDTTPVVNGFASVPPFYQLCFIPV
T3 sequence (P11712 whole entry): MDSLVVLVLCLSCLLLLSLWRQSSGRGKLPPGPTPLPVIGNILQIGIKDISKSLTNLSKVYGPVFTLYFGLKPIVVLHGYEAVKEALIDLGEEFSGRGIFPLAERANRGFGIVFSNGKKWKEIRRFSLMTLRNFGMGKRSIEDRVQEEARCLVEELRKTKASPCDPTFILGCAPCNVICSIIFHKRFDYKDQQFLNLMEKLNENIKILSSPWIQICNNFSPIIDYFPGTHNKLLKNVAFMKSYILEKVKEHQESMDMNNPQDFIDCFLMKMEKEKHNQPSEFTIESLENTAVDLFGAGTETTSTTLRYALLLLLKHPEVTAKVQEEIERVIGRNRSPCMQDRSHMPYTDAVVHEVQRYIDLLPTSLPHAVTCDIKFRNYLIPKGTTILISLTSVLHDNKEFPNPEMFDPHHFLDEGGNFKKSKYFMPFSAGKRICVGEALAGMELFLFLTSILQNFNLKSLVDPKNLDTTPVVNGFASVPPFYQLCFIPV
T2 sequence (P08684 2-503 limits assumed): as the sequence (P08684 2-503 limits assumed) above

Cc1ncc2n1-c1ccc(Cl)cc1C(c1ccccc1F)=NC2 [Midazolam, midazolam]
Km ([1]; human, recombinant human CYP3A4 (rhCYP3A4)): 1960 nM | CLint, rhCYP [1, 14]: 0.850 µL/min/pmol | Vmax,rhCYP (95% CI) [1, 14]: 1.67 pmol/min∙pmol | Vmax,HLM (95% CI) [2]: 559 pmol/min/mg | Km [3]: 4.45 µM | microsomal CLint ([3]; pH 7.5, midazolam 1-hydroxylation, HLM): 126 µL/min/mg

C[C@@H](c1nc[n+]([O-])cc1F)[C@](O)(Cn1cncn1)c1ccc(F)cc1F [NO, voriconazole N-oxide]
IC50 [4]: 11.2 µM | IC50 [5, 15]: 10.1 µM | IC50 [5, 16]: 14.9 µM | time dependence of inhibition ([5]; IC50 shift assay): Time-independent inhibition | IC50 shift ([5]; human, human liver microsomes, pH 7.5, probe diclofenac 4-hydroxylation (4.73 µM diclofenac), 30 min pre-incubation in the absence of NADPH): 1.34 | IC50 shift at 30 min ([5]; human, human liver microsomes, pH 7.5, probe diclofenac (4-hydroxylation), 4.73 µM, 30 min pre-incubation in the presence of NADPH): 0.899 | IC50 ([5]; without pre-incubation, 4.73 µM diclofenac, HLM, read-out: IC50 (95% Confidence Interval)): 13.4 µM | Type of Reversible Inhibition ([6]; CYP3A4, best model fit by AIC): noncompetitive | Ki ([6]; CYP3A4, midazolam 1-hydroxylation, HLM, read-out: Ki (95% CI)): 5.24 µM | inhibitory effect on CYP3A4 relative to VRC (fold, from Ki) ([6]; compared to VRC): 1.9 fold | Type of Reversible Inhibition ([7]; CYP2C19, best model fit by AIC): noncompetitive | inhibitory effect on CYP2C19 relative to VRC (fold lower, from Ki) ([7]; compared to VRC): 31 fold | Ki ([7]; read-out: Ki (95% CI)): 58.6 µM | IC50 [8, 15]: 6.96 µM | IC50 Shift NADPH (+) [8, 17]: 1.54 | IC50 [8, 16]: 2.91 µM | time dependence of inhibition ([8]; IC50 shift assay): Time-independent inhibition | IC50 shift [8, 18]: 0.644 | IC50 shift [8, 17]: > 1.5 | IC50 ([8]; without pre-incubation, 4.60 µM midazolam, HLM, read-out: IC50 (95% Confidence Interval)): 4.48 µM | IC50 Shift NADPH (−) [9, 18]: 0.641 | IC50 [9, 15]: > 34.2 µM | IC50 Shift NADPH (+) [9, 17]: 0.900 | IC50 [9, 16]: > 34.2 µM | time dependence of inhibition ([9]; IC50 shift assay): Time-independent inhibition | IC50 ([9]; without pre-incubation, […] S-mephenytoin, HLM, NO and OH–VRC estimates exceed applied concentrations (max 34.2 µM), read-out: IC50 (95% Confidence Interval)): > 34.2 µM | depletion over time when incubated directly with HLM ([10]; 5-60 min, 0.137 and 1.10 µM): no depletion | % compared to a control incubation without HLM after 60 min ([10]; high concentration (1.10 µM), single replicates): 96.9% and 109% | IC50 [11]: 40.2 µM | IC50 ([12]; ref Giri et al. 84): 8.7 µM | IC50 ([12]; ref Hohmann et al. 42): 146 µM | Type of Reversible Inhibition ([13]; CYP2C9, best model fit by AIC): competitive | inhibitory effect on CYP2C9 relative to VRC (fold, from Ki) ([13]; compared to VRC): 2.1 fold | Ki ([13]; read-out: Ki (95% CI)): 5.47 µM
